From patent US9593144B2, “FPR1 antagonist derivatives and use thereof” (CHANG GUNG UNIVERSITY, priority 2014, dated 2017)
Read-outs that look alike come from different tables or passages of the source. One block for each compound: values may come before it. Square brackets hold non-standard residues; d marks the D form. Peptide text beside a SMILES is read from it. * marks the point of attachment. dPhe(4-NO2) = N[C@H](Cc1ccc([N+](=O)[O-])cc1)C(=O)O; Trp(5-OH) = N[C@@H](Cc1c[nH]c2ccc(O)cc12)C(=O)O; dPhe(4-Cl) = N[C@H](Cc1ccc(Cl)cc1)C(=O)O; Nicotinoyl = O=C(c1cccnc1)*; Bz = O=C(c1ccccc1)*

How the values were obtained:
human neutrophils [1] = experiment: cells; type: cell-based; settings: for IC50: mean ± SEM
Experimental: Degranulation of azurophilic granules was determined by elastase release as described above. Experiments were performed using MeO-Suc-[…]-nitroanilide as the elastase substrate. […] Results are expressed as the percentage of elastase release in the drug-free control group, DMSO. Tables 5 and 6 explore whether there is an anti-inflamatory effect in the dipeptide derivatives. Because ferricytochrome c cannot penetrate cell membranes, it reacts with superoxide anion extracellularly. Also, there are absorptive reactions at 550 nm, and differences among the absorptive reactions can be used to evaluate the influence on the release of superoxide anion. The elastase is released by degranulation as the neutrophil is activated. Tables 5 and 6 use the substrate, MeO-Suc-[…]-nitroanilide, with the specificity for reacting with the elastase so as to evaluate the influence of the candidate compound on the elastase release. Blood was taken from healthy human donors (20-32 years old) by venipuncture, following a protocol approved by the Institutional Review Board at Chang Gung Memorial Hospital. Neutrophils were isolated by a standard method of dextran sedimentation prior to centrifugation in a Ficoll Hypaque gradient and the hypotonic lysis of erythrocytes. […] The degranulation of azurophilic granules was determined by elastase release as described above. Experiments were performed using MeO-Suc-[…]-nitroanilide as the elastase substrate. Briefly, after supplementation with MeO-Suc-[…]-nitroanilide ([…] neutrophils (6×10^5 ml^-1) were equilibrated at 37° C. for 2 min and incubated with drugs for 5 min. […] The results are expressed as the percentage of elastase release in the drug-free control group.

human neutrophils [2] = experiment: cells; type: cell-based; settings: for IC50: mean ± SEM; remark: listed apart in the source
Source text: Tables 5 and 6 explore whether there is an anti-inflamatory effect in the dipeptide derivatives. Because ferricytochrome c cannot penetrate cell membranes, it reacts with superoxide anion extracellularly. Also, there are absorptive reactions at 550 nm, and differences among the absorptive reactions can be used to evaluate the influence on the release of superoxide anion. The elastase is released by degranulation as the neutrophil is activated. Tables 5 and 6 use the substrate, MeO-Suc-Ala-Ala-Pro-Val-p-nitroanilide, with the specificity for reacting with the elastase so as to evaluate the influence of the candidate compound on the elastase release.
Blood was taken from healthy human donors (20-32 years old) by venipuncture, following a protocol approved by the Institutional Review Board at Chang Gung Memorial Hospital. Neutrophils were isolated by a standard method of dextran sedimentation prior to centrifugation in a Ficoll Hypaque gradient and the hypotonic lysis of erythrocytes.
The evaluation of O2.^− generation was based on the SOD-inhibitable reduction of ferricytochrome c. In brief, after supplementation with 0.5 mg ml^−1 ferricytochrome c and 1 mM Ca^2+, neutrophils were equilibrated at 37° C. for 2 min and incubated with drugs […].

[3] = fMLP/CB, n = 3, Table 2, read-out: Anti-inflammation NE release (IC50)
[4] = human neutrophils, fMLP/CB, n = 3, Table 2, read-out: Anti-inflammation O2•− generation (IC50)
[5] = Neutrophil, fMLP/CB, n = 3, Table 1, read-out: Anti-inflammation NE release (IC50)
[6] = Neutrophil, human neutrophils, fMLP/CB, n = 3, Table 1, read-out: Anti-inflammation O2•− generation (IC50)
[7] = fMLP/CB, n = 3, Table 1, read-out: Anti-inflammation NE release (IC50)
[8] = human neutrophils, fMLP/CB, n = 3, Table 1, read-out: Anti-inflammation O2•− generation (IC50)
[9] = Neutrophil, fMLP/CB, n = 3, Table 3, read-out: Anti-inflammation NE release (IC50)
[10] = Neutrophil, human neutrophils, fMLP/CB, n = 3, Table 3, read-out: Anti-inflammation O2•− generation (IC50)
[11] = fMLP/CB, n = 3, Table 3, read-out: Anti-inflammation NE release (IC50)
[12] = human neutrophils, fMLP/CB, n = 3, Table 3, read-out: Anti-inflammation O2•− generation (IC50)

Compound: COC(=O)[C@@H](Cc1ccc([N+](=O)[O-])cc1)NC(=O)[C@H](Cc1c[nH]c2ccccc12)NC(=O)c1ccccc1 [Compound 18b, N—(N-Benzoyl-L-tryptophanyl)-para-nitro-D-phenylalanine methyl esters] (Bz-Trp-[dPhe(4-NO2)]-OMe)
IC50 (human neutrophils [1]; [3]): 15.4 ± 0.54 µM
IC50 (human neutrophils [2]; [4]): 13.1 ± 0.4 µM

IC50 (human neutrophils [1]; [5]): > 30 µM
IC50 (human neutrophils [2]; [6]): > 30 µM
melting point: 191 to 193 °C
Compound: COC(=O)[C@@H](Cc1ccccc1)NC(=O)[C@H](Cc1c[nH]c2ccccc12)NC(=O)c1ccc(F)cc1 [Compound 4, N—(N-4-Fluorobenzoyl-L-tryptophanyl)-D-phenylalanine methyl ester]

Compound: COC(=O)[C@@H](Cc1ccccc1)NC(=O)[C@H](Cc1c[nH]c2ccccc12)NC(=O)c1cccnc1 [Compound 15a, N—(N-nicotinoyl-L-tryptophanyl)-D-phenylalanine methyl esters] (Nicotinoyl-Trp-[dF]-OMe)
IC50 (human neutrophils [1]; [7]): > 30 µM
IC50 (human neutrophils [2]; [8]): 13.1 ± 0.5 µM

IC50 (human neutrophils [1]; [9]): > 30 µM
IC50 (human neutrophils [2]; [10]): > 30 µM
Compound: O=C(N[C@@H](Cc1c[nH]c2ccccc12)C(=O)N[C@@H](CO)Cc1cccc(O)c1)c1ccccc1 [Compound 12a, N—(N-Benzoyl-L-tryptophanyl)-5-hydroxy-D-phenylalaninol]

IC50 (human neutrophils [1]; [5]): > 30 µM
IC50 (human neutrophils [2]; [6]): > 30 µM
melting point: 151 to 153 °C
Compound: COC(=O)[C@@H](Cc1ccccc1)NC(=O)[C@H](Cc1c[nH]c2ccccc12)NC(=O)c1ccc(OC)cc1 [Compound 7, N—(N-4-Methoxylbenzoyl-L-tryptophanyl)-D-phenylalanine methyl ester]

IC50 (human neutrophils [1]; Neutrophil, WKYMVm, n = 4 or 8, Table 6, read-out: Elastase release WKYMVm IC50): 1.96 ± 0.11 µM
IC50 (human neutrophils [1]; Neutrophil, WKYMVm/CB, n = 3, Table 4, read-out: WKYMVm/CB NE release (IC50)): 1.96 ± 0.11 µM
IC50 (human neutrophils [1]; Neutrophil, fMLF, n = 4 or 8, Table 6, read-out: Elastase release fMLF IC50): 2.47 ± 0.25 µM
IC50 (human neutrophils [1]; Neutrophil, fMLF/CB, n = 3, Table 4, read-out: fMLF/CB NE release (IC50)): 2.47 ± 0.25 µM
IC50 (human neutrophils [1]; [5]): 2.47 ± 0.25 µM
IC50 (human neutrophils [2]; Neutrophil, WKYMVm, n = 4 or 8, Table 5, read-out: Superoxide anion WKYMVm IC50): 6.55 ± 0.59 µM
IC50 (human neutrophils [2]; Neutrophil, WKYMVm/CB, n = 3, Table 4, read-out: WKYMVm/CB O2•− generation (IC50)): 6.55 ± 0.59 µM
IC50 (human neutrophils [2]; Neutrophil, human neutrophils, fMLF/CB, n = 3, Table 4, read-out: fMLF/CB O2•− generation (IC50)): 1.88 ± 0.29 µM
IC50 (human neutrophils [2]; Neutrophil, human neutrophils, fMLF, n = 4 or 8, Table 5, read-out: Superoxide anion fMLF IC50): 1.88 ± 0.29 µM
IC50 (human neutrophils [2]; [6]): 1.88 ± 0.29 µM
melting point: 169 to 171 °C
Compound: COC(=O)[C@@H](Cc1ccccc1)NC(=O)[C@H](Cc1c[nH]c2ccccc12)NC(=O)c1ccc(C)cc1 [Compound 6, N—(N-4-Methylbenzoyl-L-tryptophanyl)-D-phenylalanine methyl ester]

Compound: COC(=O)[C@@H](Cc1ccc([N+](=O)[O-])cc1)NC(=O)[C@H](Cc1c[nH]c2ccccc12)NC(=O)c1ccccc1 [Compound 18a, N—(N-Benzoyl-L-tryptophanyl)-para-nitro-D-phenylalanine methyl esters] (Bz-Trp-[dPhe(4-NO2)]-OMe)
IC50 (human neutrophils [1]; [3]): 11.2 ± 0.46 µM
IC50 (human neutrophils [2]; [4]): 19 ± 2.7 µM

IC50 (human neutrophils [1]; [9]): > 30 µM
IC50 (human neutrophils [2]; [10]): > 30 µM
melting point: 151 to 153 °C
Compound: O=C(N[C@@H](Cc1c[nH]c2ccccc12)C(=O)N[C@@H](CO)Cc1ccccc1)c1ccccc1 [Compound 13a, N—(N-Benzoyl-L-tryptophanyl)-D-phenylalaninol]

Compound: COC(=O)[C@@H](Cc1ccccc1)NC(=O)[C@H](Cc1c[nH]c2ccc(O)cc12)NC(=O)c1ccccc1 [Compound 11a, N—(N-Benzoyl-5-hydroxy-L-tryptophanyl)-D-phenylalanine methyl esters] (Bz-[Trp(5-OH)]-[dF]-OMe)
IC50 (human neutrophils [1]; [7]): 9.11 ± 0.76 µM
IC50 (human neutrophils [2]; [8]): 8.81 ± 1.22 µM

Compound: COC(=O)[C@@H](Cc1ccccc1)NC(=O)[C@H](Cc1c[nH]c2ccc(O)cc12)NC(=O)c1ccccc1 [Compound 11b, N—(N-Benzoyl-5-hydroxy-L-tryptophanyl)-D-phenylalanine methyl esters] (Bz-[Trp(5-OH)]-[dF]-OMe)
IC50 (human neutrophils [1]; [7]): 22.1 ± 4.96 µM
IC50 (human neutrophils [2]; [8]): 18.7 ± 4.02 µM

Compound: N#CCNC(=O)[C@@H](Cc1ccccc1)NC(=O)[C@H](Cc1c[nH]c2ccccc12)NC(=O)c1ccccc1 [Compound 27a, N—(N-benzoyl-L-tryptophanyl)-D-phenylalanine-glycine-nitriles]
Elastase release WKYMVm Inh % (human neutrophils [1]; WKYMVm, inhibitory percentage under 10 μM, Table 6): 35.9 ± 0.8 %
Elastase release fMLF Inh % (human neutrophils [1]; fMLF, inhibitory percentage under 10 μM, Table 6, listed as HCH 90-2-2): 28.79 ± 2.6 %
IC50 (human neutrophils [1]; [11]): 4.69 ± 0.8 µM
Superoxide anion WKYMVm Inh % (human neutrophils [2]; WKYMVm, inhibitory percentage under 10 μM, Table 5, listed as HCH 90-2-2): 28.79 ± 2.6 %
IC50 (human neutrophils [2]; human neutrophils, fMLF, n = 4 or 8, Table 5, read-out: Superoxide anion fMLF IC50): 6.23 ± 1.05 µM
IC50 (human neutrophils [2]; [12]): 4.23 ± 2.44 µM

IC50 (human neutrophils [1]; [5]): 10.4 ± 4.61 µM
IC50 (human neutrophils [2]; [6]): > 30 µM
melting point: 191 to 193 °C
Compound: COC(=O)[C@@H](Cc1ccccc1)NC(=O)[C@H](Cc1c[nH]c2ccccc12)NC(=O)c1ccc(Cl)cc1 [Compound 5, N—(N-4-Chlorobenzoyl-L-tryptophanyl)-D-phenylalanine methyl ester]

Compound: N#CCNC(=O)[C@@H](Cc1ccccc1)NC(=O)[C@H](Cc1c[nH]c2ccccc12)NC(=O)c1ccccc1 [Compound 27b, N—(N-benzoyl-L-tryptophanyl)-D-phenylalanine-glycine-nitriles]
IC50 (human neutrophils [1]; WKYMVm, n = 4 or 8, Table 6, read-out: Elastase release WKYMVm IC50): 6.65 ± 0.23 µM
Elastase release fMLF Inh % (human neutrophils [1]; fMLF, inhibitory percentage under 10 μM, Table 6, listed as HCH 90-2-1): 18.66 ± 0.7 %
IC50 (human neutrophils [1]; [11]): 14.5 ± 2.87 µM
Superoxide anion WKYMVm Inh % (human neutrophils [2]; WKYMVm, inhibitory percentage under 10 μM, Table 5, listed as HCH 90-2-1): 18.66 ± 0.7 %
Superoxide anion fMLF Inh % (human neutrophils [2]; human neutrophils, fMLF, inhibitory percentage under 10 μM, Table 5): 34.61 ± 4.1 %
IC50 (human neutrophils [2]; [12]): 10.5 ± 4.23 µM

Compound: COC(=O)[C@@H](Cc1ccc(Cl)cc1)NC(=O)[C@H](Cc1c[nH]c2ccccc12)NC(=O)c1ccccc1 [Compound 21b, N—(N-Benzoyl-L-tryptophanyl)-para-chloro-D-phenylalanine methyl esters] (Bz-Trp-[dPhe(4-Cl)]-OMe)
IC50 (human neutrophils [1]; [3]): 12.4 ± 3.53 µM
IC50 (human neutrophils [2]; [4]): 5.26 ± 0.84 µM

Compound: COC(=O)[C@@H](Cc1ccccc1)NC(=O)[C@H](Cc1c[nH]c2ccccc12)NC(=O)c1cccnc1 [Compound 15b, N—(N-nicotinoyl-L-tryptophanyl)-D-phenylalanine methyl esters] (Nicotinoyl-Trp-[dF]-OMe)
IC50 (human neutrophils [1]; [7]): > 30 µM
IC50 (human neutrophils [2]; [8]): > 30 µM

IC50 (human neutrophils [1]; [5]): 0.046 ± 0.02 µM
Compound: CC(C)(C)C(=O)Oc1ccc(S(=O)(=O)Nc2ccccc2C(=O)NCC(=O)O)cc1 [Sivelestat, reference compound]

Compound: C/C=C/C[C@@H](C)[C@@H](O)[C@H]1C(=O)N[C@@H](CC)C(=O)N(C)CC(=O)N(C)[C@@H](CC(C)C)C(=O)N[C@@H](C(C)C)C(=O)N(C)[C@@H](CC(C)C)C(=O)N[C@@H](C)C(=O)N[C@H](C)C(=O)N(C)[C@@H](CC(C)C)C(=O)N(C)[C@@H](CC(C)C)C(=O)N(C)[C@H](C(C)C)C(=O)N1C [CycH, Cyclosporin H, reference compound]
IC50 (human neutrophils [1]; WKYMVm/CB, n = 3, Table 4, read-out: WKYMVm/CB NE release (IC50)): 0.17 ± 0.01 µM

Compound: COC(=O)[C@@H](Cc1ccc(Cl)cc1)NC(=O)[C@H](Cc1c[nH]c2ccccc12)NC(=O)c1ccccc1 [Compound 21a, N—(N-Benzoyl-L-tryptophanyl)-para-chloro-D-phenylalanine methyl esters] (Bz-Trp-[dPhe(4-Cl)]-OMe)
IC50 (human neutrophils [1]; [3]): 4.31 ± 0.52 µM
IC50 (human neutrophils [2]; [4]): 4.41 ± 0.27 µM
